Consider 27 molecules from patent publication US10604512B2, “3-(1H-indol-2-yl)-1H-indazoles and therapeutic uses thereof” (Samumed, LLC, priority 2015, dated 2020).

A value given as a limit tells only on which side of the number the result lay.

The subject of assay [1] is Primary human fibroblasts derived from IPF patients (LL29 cells) treated with TGF-β1. As to the kind of experiment: Inhibition of the fibrotic process: αSMA staining in TGF-β1-treated primary human fibroblasts from IPF patients (LL29 cells). Format: cell-based. The following applies: Fibroblast, 96 h; for EC50: % αSMA-positive LL29 cells, TGF-β1 20 ng/mL, 4 days; for inhibition at 10 µM: given where EC50 >10 μM, αSMA, LL29 cells, TGF-β1, 4 days, read-out: percent inhibition at 10 μM. The method, boiled down:
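LL29 IPF-patient fibroblasts in 1% FBS stimulated with TGF-β1 (20 ng/mL) and compound (10 μM–1.87 nM, 0.1% DMSO) for 4 days at 37 °C. SYTOX-positive cells excluded; % αSMA-positive cells imaged, normalized to TGF-β1/DMSO wells; EC50 by nonlinear regression, else % inhibition at 10 μM.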

For assay [2], the system named is Wnt activity (Sp5-Luc reporter, TCF/LEF binding sites) in SW480 colon carcinoma cells. As to the kind of experiment: Screening assay for Wnt activity: Sp5-Luc reporter gene assay in stably transduced SW480 colon carcinoma cells. The settings on record: Homo sapiens; for EC50: overnight incubation, 10-point curve from 10 μM; for inhibition at 10 µM: given where EC50 >10 μM, read-out: percent inhibition at 10 μM. Format: cell-based. The method, boiled down:
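SW480 cells stably transduced with a luciferase reporter driven by an Sp5 promoter of eight TCF/LEF sites were plated at 4,000 cells/well in 1% FBS medium. They were exposed overnight at 37° C to a 10-point 1:3 dilution series from 10 μM (0.1% DMSO). Luminescence was normalized to DMSO for four-parameter EC50, or percent inhibition at 10 μM.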
A general note: A reporter such as luciferase makes a cellular process visible.

As a reminder, the EC50 is the concentration giving half of the maximal effect. The low end stands for greater potency, the high end for weaker potency. In the case of `CC(C)C(=O)Nc1cncc(-c2ccc3[nH]nc(-c4cc5c(-c6cccnc6)cccc5[nH]4)c3c2)c1` [Compound 93, N-(5-(3-(4-(Pyridin-3-yl)-1H-indol-2-yl)-1H-indazol-5-yl)pyridin-3-yl) isobutyramide], the EC50 in assay [1] was 1220 nM; in assay [2], 85 nM.

`c1cncc(-c2cccc3[nH]c(-c4n[nH]c5ccc(-c6cncc(CN7CCCCC7)c6)cc45)cc23)c1` [Compound 99, 5-(5-(Piperidin-1-ylmethyl)pyridin-3-yl)-3-(4-(pyridin-3-yl)-1H-indol-2-yl)-1H-indazole]: the EC50 was more than 10000 nM in assay [1] and 5000 nM in assay [2].

Usually inhibition stands for the percentage by which the read-out fell short of the control. Take `FC1(F)CCN(Cc2cncc(-c3ccc4[nH]nc(-c5cc6c(-c7cccnc7)cccc6[nH]5)c4c3)c2)C1` [Compound 110, 5-(5-((3,3-Difluoropyrrolidin-1-yl)methyl)pyridin-3-yl)-3-(4-(pyridin-3-yl)-1H-indol-2-yl)-1H-indazole]: the EC50 was 9980 nM in assay [1] and more than 10000 nM in assay [2]. Moreover, the inhibition at 10 µM in assay [2] stood at 30.1%.

For the molecule `c1cncc(-c2cccc3[nH]c(-c4n[nH]c5ccc(-c6cncnc6)cc45)cc23)c1` [Compound 111, 3-(4-(Pyridin-3-yl)-1H-indol-2-yl)-5-(pyrimidin-5-yl)-1H-indazole], the EC50 is 857 nM in assay [1] and 990 nM in assay [2].

Regarding `Cc1ccncc1-c1ccc2[nH]nc(-c3cc4c(-c5ccncc5)cccc4[nH]3)c2c1` [Compound 117, 5-(4-Methylpyridin-3-yl)-3-(4-(pyridin-4-yl)-1H-indol-2-yl)-1H-indazole], in assay [1], the EC50 is more than 10000 nM and the inhibition at 10 µM turned out to be 17.7%. Further, in assay [2], the inhibition at 10 µM was 19.6% and the EC50 is more than 10000 nM.

Take `CCNCc1cncc(-c2ccc3[nH]nc(-c4cc5c(-c6ccncc6)cccc5[nH]4)c3c2)c1` [Compound 118, N-((5-(3-(4-(Pyridin-4-yl)-1H-indol-2-yl)-1H-indazol-5-yl)pyridin-3-yl)methyl)ethanamine]: the EC50 in assay [1] amounted to 888 nM; in assay [2] it was 1440 nM.

On to `O=C(Cc1ccccc1)Nc1cncc(-c2ccc3[nH]nc(-c4cc5c(-c6ccncc6)cccc5[nH]4)c3c2)c1` [Compound 122, 2-Phenyl-N-(5-(3-(4-(pyridin-4-yl)-1H-indol-2-yl)-1H-indazol-5-yl)pyridin-3-yl)acetamide], for which, in assay [1], the 50% effective concentration (EC50) is more than 10000 nM and the inhibition at 10 µM amounted to 0%. In assay [2], the inhibition at 10 µM came to 45.5% and the EC50 was more than 10000 nM.

Take `CN(C)Cc1cncc(-c2ccc3[nH]nc(-c4cc5c(-c6ccncc6)cccc5[nH]4)c3c2)c1` [Compound 125, N,N-dimethyl-1-(5-(3-(4-(Pyridin-4-yl)-1H-indol-2-yl)-1H-indazol-5-yl)pyridin-3-yl)methanamine]: the EC50 in assay [1] is 1240 nM; in assay [2], 275 nM.

For the molecule `CCCC(=O)Nc1cncc(-c2ccc3[nH]nc(-c4cc5c(-c6ccncc6)cccc5[nH]4)c3c2)c1` [Compound 129, N-(5-(3-(4-(Pyridin-4-yl)-1H-indol-2-yl)-1H-indazol-5-yl)pyridin-3-yl) butyramide], the half-maximal effective concentration (EC50) came to 2870 nM in assay [1] and 600 nM in assay [2].

Molecule `c1cc(-c2ccncc2)c2cc(-c3n[nH]c4ccc(-c5ccncc5)cc34)[nH]c2c1` [Compound 130, 5-(Pyridin-4-yl)-3-(4-(pyridin-4-yl)-1H-indol-2-yl)-1H-indazole] came in with a concentration giving a half-maximal response (EC50) in assay [1] of 1650 nM. Also, in assay [2], the inhibition at 10 µM was found to be 52.8% and the EC50 was more than 10000 nM.

Turning to `O=C(Nc1cncc(-c2ccc3[nH]nc(-c4cc5c(-c6ccncc6)cccc5[nH]4)c3c2)c1)C1CC1` [Compound 132, N-(5-(3-(4-(Pyridin-4-yl)-1H-indol-2-yl)-1H-indazol-5-yl)pyridin-3-yl) cyclopropanecarboxamide], the figures for the EC50 in assay [1] and in assay [2] were 76 nM and 135 nM, respectively.

As to `O=C(Nc1cncc(-c2ccc3[nH]nc(-c4cc5c(-c6ccncc6)cccc5[nH]4)c3c2)c1)C1CCCCC1` [Compound 135, N-(5-(3-(4-(Pyridin-4-yl)-1H-indol-2-yl)-1H-indazol-5-yl)pyridin-3-yl) cyclohexanecarboxamide], the concentration giving a half-maximal response (EC50) was more than 10000 nM in assay [1] and 4400 nM in assay [2]. For the same molecule, the inhibition at 10 µM in assay [1] came out at 10.7%.

As for `c1ccc(-c2ccc3[nH]nc(-c4cc5c(-c6ccncc6)cccc5[nH]4)c3c2)nc1` [Compound 140, 5-(Pyridin-2-yl)-3-(4-(pyridin-4-yl)-1H-indol-2-yl)-1H-indazole], the EC50 in assay [1] was found to be 1260 nM; in assay [2], 3560 nM.

Turning to `Nc1cncc(-c2ccc3[nH]nc(-c4cc5c(-c6ccccn6)cccc5[nH]4)c3c2)c1` [Compound 143, 5-(3-(4-(Pyridin-2-yl)-1H-indol-2-yl)-1H-indazol-5-yl)pyridin-3-amine], the results for the EC50 in assay [1] and in assay [2] were 82 nM and 60 nM, respectively.

Take `Cc1ccncc1-c1ccc2[nH]nc(-c3cc4c(-c5ccccn5)cccc4[nH]3)c2c1` [Compound 145, 5-(4-Methylpyridin-3-yl)-3-(4-(pyridin-2-yl)-1H-indol-2-yl)-1H-indazole]: the EC50 in assay [1] worked out at 2940 nM; in assay [2], 1900 nM.

For `O=C(Nc1cncc(-c2ccc3[nH]nc(-c4cc5c(-c6ccccn6)cccc5[nH]4)c3c2)c1)c1ccccc1` [Compound 151, N-(5-(3-(4-(Pyridin-2-yl)-1H-indol-2-yl)-1H-indazol-5-yl)pyridin-3-yl) benzamide], in assay [1], the EC50 is more than 10000 nM and the inhibition at 10 µM was 0%. The same molecule returned an EC50 in assay [2] of 150 nM.

`c1ccc(-c2cccc3[nH]c(-c4n[nH]c5ccc(-c6cncc(CN7CCCC7)c6)cc45)cc23)nc1` [Compound 154, 3-(4-(Pyridin-2-yl)-1H-indol-2-yl)-5-(5-(pyrrolidin-1-ylmethyl)pyridin-3-yl)-1H-indazole]: the EC50 came to 222 nM in assay [1] and 490 nM in assay [2].

For `c1ccc(-c2cccc3[nH]c(-c4n[nH]c5ccc(-c6ccncc6)cc45)cc23)nc1` [Compound 158, 3-(4-(Pyridin-2-yl)-1H-indol-2-yl)-5-(pyridin-4-yl)-1H-indazole], the half-maximal effective concentration (EC50) in assay [1] was 627 nM; in assay [2] it was 4120 nM.

In the case of `CCCCC(=O)Nc1cncc(-c2ccc3[nH]nc(-c4cc5c(-c6ccccn6)cccc5[nH]4)c3c2)c1` [Compound 159, N-(5-(3-(4-(Pyridin-2-yl)-1H-indol-2-yl)-1H-indazol-5-yl)pyridin-3-yl) pentanamide], in assay [1], the concentration giving a half-maximal response (EC50) was more than 10000 nM and the inhibition at 10 µM was determined as 45.6%. Also, in assay [2], the EC50 was 1670 nM.

Take `c1ccc(-c2cccc3[nH]c(-c4n[nH]c5ccc(-c6cncnc6)cc45)cc23)nc1` [Compound 167, 3-(4-(Pyridin-2-yl)-1H-indol-2-yl)-5-(pyrimidin-5-yl)-1H-indazole]: the EC50 in assay [1] was found to be 1200 nM; in assay [2], 1220 nM.

In the case of `CCC(=O)Nc1cncc(-c2ccc3[nH]nc(-c4cc5c(N6CCCCC6)cccc5[nH]4)c3c2)c1` [Compound 169, N-(5-(3-(4-(Piperidin-1-yl)-1H-indol-2-yl)-1H-indazol-5-yl)pyridin-3-yl) propionamide], the figures for the concentration giving a half-maximal response (EC50) in assay [1] and in assay [2] were 1020 nM and 1400 nM, respectively.

As to `CN(C)Cc1cncc(-c2ccc3[nH]nc(-c4cc5c(N6CCCCC6)cccc5[nH]4)c3c2)c1` [Compound 181, N,N-Dimethyl-1-(5-(3-(4-(piperidin-1-yl)-1H-indol-2-yl)-1H-indazol-5-yl)pyridin-3-yl)methanamine], the EC50 amounted to 4820 nM in assay [1] and 575 nM in assay [2].

As for `O=C(Nc1cncc(-c2ccc3[nH]nc(-c4cc5c(N6CCCCC6)cccc5[nH]4)c3c2)c1)C1CC1` [Compound 188, N-(5-(3-(4-(Piperidin-1-yl)-1H-indol-2-yl)-1H-indazol-5-yl)pyridin-3-yl) cyclopropanecarboxamide], the EC50 in assay [1] came out at 5790 nM; in assay [2], 195 nM.

On to `FC1(F)CCN(Cc2cncc(-c3ccc4[nH]nc(-c5cc6c(N7CCCCC7)cccc6[nH]5)c4c3)c2)C1` [Compound 194, 5-(5-((3,3-Difluoropyrrolidin-1-yl)methyl)pyridin-3-yl)-3-(4-(piperidin-1-yl)-1H-indol-2-yl)-1H-indazole], for which the results for the EC50 in assay [1] and in assay [2] were 1310 nM and 750 nM, respectively.

As for `CN1CCN(c2cccc3[nH]c(-c4n[nH]c5ccc(-c6cncc(N)c6)cc45)cc23)CC1` [Compound 227, 5-(3-(4-(4-Methylpiperazin-1-yl)-1H-indol-2-yl)-1H-indazol-5-yl)pyridin-3-amine], the EC50 is 4000 nM in assay [1] and 474 nM in assay [2].

On to `CC(C)C(=O)Nc1cncc(-c2ccc3[nH]nc(-c4cc5c(N6CCN(C)CC6)cccc5[nH]4)c3c2)c1` [Compound 233, N-(5-(3-(4-(4-Methylpiperazin-1-yl)-1H-indol-2-yl)-1H-indazol-5-yl)pyridin-3-yl)isobutyramide], for which the half-maximal effective concentration (EC50) in assay [1] came to 1310 nM; in assay [2] it was 565 nM.

As for `CN1CCN(c2cccc3[nH]c(-c4n[nH]c5ccc(-c6cncc(CN7CCCCC7)c6)cc45)cc23)CC1` [Compound 239, 3-(4-(4-Methylpiperazin-1-yl)-1H-indol-2-yl)-5-(5-(piperidin-1-ylmethyl)pyridin-3-yl)-1H-indazole], the EC50 in assay [1] is more than 10000 nM; in assay [2], 4970 nM. The inhibition at 10 µM in assay [1] is 21.1%.
